Data published in US6096930A, “Herbicidal cyclohexane-1,3-dione derivatives and their preparation process” (Korea Research Institute of Chemical Technology, priority 1994, dated 2000).
Like-named read-outs stand apart in the source and are kept apart here.

Columns and labels:
Test in all cases: Herbicidal activity for paddy test
Assay type in all cases: in vivo
[1] = test system: SAGPY; details: for pest or weed control at 2 g/ha: 0.002 kg/ha; for pest or weed control at 8 g/ha: 0.008 kg/ha; for pest or weed control at 31 g/ha: 0.031 kg/ha; for pest or weed control at 125 g/ha: 0.125 kg/ha; for pest or weed control at 500 g/ha: 0.500 kg/ha
Summary of the method: (§1)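 For paddy conditions, species grew in furrows within pots of sterilized sandy loam soil (115 cm^2 surface area), and efficacy was judged by eye as percent control, with 0 meaning no herbicidal effect and 100 meaning total kill.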

[2] = test system: ORYSA; details: for plant injury at 2 g/ha: 0.002 kg/ha; for plant injury at 8 g/ha: 0.008 kg/ha; for plant injury at 31 g/ha: 0.031 kg/ha; for plant injury at 125 g/ha: 0.125 kg/ha; for plant injury at 500 g/ha: 0.500 kg/ha
Summary of the method: as §1

[3] = test system: SCPJU; details: for pest or weed control at 2 g/ha: 0.002 kg/ha; for pest or weed control at 8 g/ha: 0.008 kg/ha; for pest or weed control at 31 g/ha: 0.031 kg/ha; for pest or weed control at 125 g/ha: 0.125 kg/ha; for pest or weed control at 500 g/ha: 0.500 kg/ha
Summary of the method: as §1

[4] = test system: MOOVA; details: for pest or weed control at 2 g/ha: 0.002 kg/ha; for pest or weed control at 8 g/ha: 0.008 kg/ha; for pest or weed control at 31 g/ha: 0.031 kg/ha; for pest or weed control at 125 g/ha: 0.125 kg/ha; for pest or weed control at 500 g/ha: 0.500 kg/ha
Summary of the method: as §1

[5] = test system: ECHOR; details: for pest or weed control at 2 g/ha: 0.002 kg/ha; for pest or weed control at 8 g/ha: 0.008 kg/ha; for pest or weed control at 31 g/ha: 0.031 kg/ha; for pest or weed control at 125 g/ha: 0.125 kg/ha; for pest or weed control at 500 g/ha: 0.500 kg/ha
Summary of the method: as §1

[6] = 3 Leaf, read-out: Herbicidal activity, ORYSA (3 Leaf)
[7] = seed, read-out: Herbicidal activity, ORYSA (seed)

Structure (SMILES)	pest or weed control at 2 g/ha [1] [%]	pest or weed control at 8 g/ha [1] [%]	pest or weed control at 31 g/ha [1] [%]	pest or weed control at 125 g/ha [1] [%]	pest or weed control at 500 g/ha [1] [%]	plant injury at 2 g/ha [2, 6] [%]	plant injury at 8 g/ha [2, 6] [%]	plant injury at 31 g/ha [2, 6] [%]	plant injury at 125 g/ha [2, 6] [%]	plant injury at 500 g/ha [2, 6] [%]	plant injury at 2 g/ha [2, 7] [%]	plant injury at 8 g/ha [2, 7] [%]	plant injury at 31 g/ha [2, 7] [%]	plant injury at 125 g/ha [2, 7] [%]	plant injury at 500 g/ha [2, 7] [%]	pest or weed control at 2 g/ha [3] [%]	pest or weed control at 8 g/ha [3] [%]	pest or weed control at 31 g/ha [3] [%]	pest or weed control at 125 g/ha [3] [%]	pest or weed control at 500 g/ha [3] [%]	further results
CCC(=NOC)C1=C(O)CC(c2c(C)c(C)c3c(c2Cl)CC(C)(C)C3)CC1=O (stereo not drawn) [Compound 38]	0	0	0	0	0	0	0	0	50	100	0	20	100	100	100	0	0	0	0	0	pest or weed control at 2 g/ha [4]: 0%; pest or weed control at 8 g/ha [4]: 0%; pest or weed control at 31 g/ha [4]: 0%; pest or weed control at 125 g/ha [4]: 0%; pest or weed control at 500 g/ha [4]: 0%; pest or weed control at 2 g/ha [5]: 0%; pest or weed control at 8 g/ha [5]: 95%; pest or weed control at 31 g/ha [5]: 100%; pest or weed control at 125 g/ha [5]: 100%; pest or weed control at 500 g/ha [5]: 100%
CCON=C(CC)C1=C(O)CC(c2c(C)c(C)c3c(c2Cl)CC(C)(C)C3)CC1=O (stereo not drawn) [Compound 39]	0	0	0	0	0	0	0	0	0	80	0	0	100	100	100	0	0	0	0	0	pest or weed control at 2 g/ha [4]: 0%; pest or weed control at 8 g/ha [4]: 0%; pest or weed control at 31 g/ha [4]: 0%; pest or weed control at 125 g/ha [4]: 0%; pest or weed control at 500 g/ha [4]: 0%; pest or weed control at 2 g/ha [5]: 0%; pest or weed control at 8 g/ha [5]: 80%; pest or weed control at 31 g/ha [5]: 100%; pest or weed control at 125 g/ha [5]: 100%; pest or weed control at 500 g/ha [5]: 100%
C=CCON=C(CC)C1=C(O)CC(c2c(C)c(C)c3c(c2Cl)CC(C)(C)C3)CC1=O (stereo not drawn) [Compound 40]	0	0	0	0	0	0	0	0	0	0	0	0	0	0	100	0	0	0	0	0	pest or weed control at 2 g/ha [4]: 0%; pest or weed control at 8 g/ha [4]: 0%; pest or weed control at 31 g/ha [4]: 0%; pest or weed control at 125 g/ha [4]: 0%; pest or weed control at 500 g/ha [4]: 0%; pest or weed control at 2 g/ha [5]: 0%; pest or weed control at 8 g/ha [5]: 0%; pest or weed control at 31 g/ha [5]: 0%; pest or weed control at 125 g/ha [5]: 100%; pest or weed control at 500 g/ha [5]: 100%
CCCC(=NOC)C1=C(O)CC(c2c(C)c(C)c3c(c2Cl)CC(C)(C)C3)CC1=O (stereo not drawn) [Compound 42]	0	0	0	0	0	0	0	0	0	0	0	0	20	100	100	0	0	0	0	0	pest or weed control at 2 g/ha [4]: 0%; pest or weed control at 8 g/ha [4]: 0%; pest or weed control at 31 g/ha [4]: 0%; pest or weed control at 125 g/ha [4]: 0%; pest or weed control at 500 g/ha [4]: 0%; pest or weed control at 2 g/ha [5]: 0%; pest or weed control at 8 g/ha [5]: 0%; pest or weed control at 31 g/ha [5]: 80%; pest or weed control at 125 g/ha [5]: 100%; pest or weed control at 500 g/ha [5]: 100%
